Patent publication US20250360160A1, “NEW MEDICAL USE OF TAFOXIPARIN” (DILAFOR AB, priority 2022, published 2025)

Tested on: factor IIa
Assay: antifactor IIa activity
Type: biochemical
Settings: definition of tafoxiparin

Chain of factor IIa (P01008 33-464): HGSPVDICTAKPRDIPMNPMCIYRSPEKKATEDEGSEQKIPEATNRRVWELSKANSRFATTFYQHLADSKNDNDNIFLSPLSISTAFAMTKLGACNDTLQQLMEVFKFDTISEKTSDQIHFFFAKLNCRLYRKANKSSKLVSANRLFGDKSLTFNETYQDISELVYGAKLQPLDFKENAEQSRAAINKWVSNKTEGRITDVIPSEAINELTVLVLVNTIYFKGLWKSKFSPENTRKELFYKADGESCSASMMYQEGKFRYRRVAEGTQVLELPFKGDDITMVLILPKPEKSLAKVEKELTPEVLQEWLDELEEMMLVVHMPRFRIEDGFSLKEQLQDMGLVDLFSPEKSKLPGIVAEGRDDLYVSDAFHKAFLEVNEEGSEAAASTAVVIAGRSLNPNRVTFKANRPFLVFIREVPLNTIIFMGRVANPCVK

tafoxiparin
antifactor IIa activity: less than 10 IU/mg
